Measurements taken from patent publication US10030027B2, “Soluble guanylate cyclase stimulators” (MERCK SHARP & DOHME CORP., priority 2015, dated 2018).
pEC50, pKi: −log10 of the molar value.

What was measured:
sGC α1/β1 heterodimer = sGC α1/β1 heterodimer (Homo sapiens (Human), UniProt Q02108+Q02153); test: Cell-based sGC functional assay (cyclic GMP assay for sGC activator: CASA assay); details: CHO-K1/sGC cells; for Emax: CHO-K1, activity expressed as percentage of compound A (standard), read-out: % Activation; for pEC50: inflection point, 4P fit, read-out: IP
Summary of the method: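 CHO-K1 cells stably expressing sGC α1/β1 were pre-incubated with or without 1 μM DETA-NO (30 min, 25 °C), then exposed to compounds for 1 hr at 37 °C with 0.5 mM IBMX. Intracellular cGMP was read by HTRF and expressed as a percentage of a reference heme-dependent activator's maximum.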

[1] = molecular target: human recombinant sGC enzyme (Homo sapiens (Human), UniProt Q02108+Q02153); test: Size Exclusion Chromatography (SEC) competition binding assay using [3H] Ex-77B as the radioligand; details: [3H] Ex-77B radioligand, 24 hours at 37° C.
Summary of the method: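 Recombinant human sGC binding measured by competition against tritiated Ex-77B radioligand, with non-specific binding defined by 1 μM unlabeled Ex-77B.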

[2] = test system: Spontaneously hypertensive rats (SHR); test: Acute efficacy in spontaneously hypertensive rats (SHR); format: in vivo, rat
Summary of the method: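 Conscious male SHR with aortic telemetry implants given a single oral gavage of compound in 10% transcutol/20% Cremophor/70% water. Blood pressure sampled continuously, averaged hourly and corrected against vehicle baseline recorded the previous day; maximum peak systolic BP decrease reported at stated oral dose (mg/kg).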

[3] = test system: hypoxia-induced pulmonary hypertension rat; test: Acute efficacy in hypoxia-induced pulmonary hypertension in rat following intratracheal administration; format: in vivo
Description: Acute Efficacy in Hypoxia-Induced Pulmonary Hypertension in Rat Following Intratracheal Administration Charles River Sprague-Dawley (CD) male rats weighing approximately 350 g were implanted with HD-S21 dual pressure telemetry transmitters (Data Sciences International (DSI)) into the pulmonary artery and femoral artery. This transmitter enables simultaneous measurement of both pulmonary and systemic hemodynamic parameters in the same animal. After a 7-10 day post-operative recovery period, animals were subjected to a normobaric hypoxic (10% oxygen) environment using a Higher Peak Mountain Air Generator (MAG-10) connected to a modified rodent cage via a fitted inlet port. Oxygen (at 10%), temperature, humidity, and CO2 were controlled within normal range and animals were maintained on a 12 hour light-dark cycle with ad libitum access to food and water. After two weeks exposure to 10% O2 hypoxic environment, systolic pulmonary arterial pressure readings increased from 25 mmHg to greater than 50 mmHg. Using a 48 hour baseline average, animals with readings between 50-110 mmHg (standard deviation of less than 10 mmHg) and minimal changes in systolic systemic blood pressure were enrolled for study. Animals were utilized for up to 2 studies per week for 4 weeks with a minimum of 2 days washout between doses of test agent. Compound or vehicle was administered intra-tracheally under light isoflurane anesthesia (5% in oxygen; flow rate 2.0 L/min for 3 minutes). Once anesthetized, rats were placed on an angled intubation stand in supine position and the trachea visualized using a small laryngoscope. Animals then received either 0.5 mL/kg of vehicle or 0.5 mL/kg vehicle containing compound intra-tracheally delivered via microsprayer by use of a Penn-Century Microsprayer® needle 3″ (Model IA-1B-GP) attached to a 1 mL high pressure syringe (Penn Century-Model B-SYR-PL1000) (Penn-Century, Philadelphia, Pa.). The Microsprayer® tip was inserted into the trachea up to the point at which the bend in the needle is close to the tip of the snout, which positions the tip of the Microsprayer® in front of the carina (bifurcation of trachea at the bronchi). After dose delivery the animal is placed on its back in the home cage for recovery. Hemodynamic measurements were continuously recorded and readings consolidated to hourly moving averages. Each animal received a vehicle on Day 1 followed by vehicle or test agent on Day 2. Change from vehicle baseline was calculated by subtracting the hourly Day 1 vehicle response from the hourly Day 2 response and treatment group data was expressed as mean±SEM. Decreases of systolic blood pressure (SBP) and systolic pulmonary arterial pressure (PAP) were measured at a particular IT dose (mpk milligrams per kilogram) for the following Example compounds.

| SMILES | Emax (sGC α1/β1 heterodimer) | pEC50 (sGC α1/β1 heterodimer) | pKi [1] | Category: maximum peak decrease of systolic blood pressure (SBP) in SHR ([2]; Dose P.O. 3 mpk) | Category: decrease in SBP (at minimum decrease in PAP of ≥15 mmHg) ([3]; Dose IT 0.01 mpk) | Category: maximum peak decrease of systolic blood pressure (SBP) in SHR ([2]; Dose P.O. 1 mpk) | Category: decrease in SBP (at minimum decrease in PAP of ≥15 mmHg) ([3]; Dose IT 0.03 mpk) | Category: decrease in SBP (at minimum decrease in PAP of ≥15 mmHg) ([3]; Dose IT 0.1 mpk) |
| --- | --- | --- | --- | --- | --- | --- | --- | --- |
| C[C@@]1(c2ccc(CCC(=O)O)cc2)C(=O)Nc2nc(-c3nn(CCC(F)(F)C(F)(F)F)c4cc(Cl)ccc34)nc(N)c21 [Example 10B, (S)-3-(4-{4-Amino-2-[6-chloro-1-(3,3,4,4,4-pentafluorobutyl)-1H-indazol-3-yl]-5-methyl-6-oxo-6,7-dihydro-5H-pyrrolo[2,3-d]pyrimidin-5-yl}phenyl)propanoic acid] | 117% | 6.34 | 9.82 | A (decrease in SBP in SHRs 5-25 mmHg) | A (decrease in SBP 0-5 mmHg) |  |  |  |
| C[C@@]1(c2ccc(CCC(=O)O)cc2)C(=O)Nc2nc(-c3nn(CCC(F)(F)C(F)(F)F)c4ncccc34)nc(N)c21 (single isomer, unassigned) [Example 7A] | 98% | 5.99 | 9.81 | A (decrease in SBP in SHRs 5-25 mmHg) |  |  |  | B (decrease in SBP 5-10 mmHg) |
| C[C@@]1(c2ccc(CCC(=O)O)cc2)C(=O)Nc2nc(-c3nn(CC4CC(F)(F)C4)c4cc(Cl)ccc34)nc(N)c21 [Example 163B, (S)-3-{4-[4-amino-2-{6-chloro-1-[(3,3-difluorocyclo-butyl)methyl]-1H-indazol-3-yl}-5-methyl-6-oxo-6,7-dihydro-5H-pyrrolo[2,3-d]pyrimidin-5-yl]phenyl}propanoic acid] | 90.8% | 6.39 | 8.73 |  |  |  | C (decrease in SBP>10 mmHg) |  |
| C[C@@]1(c2ccc(CCc3nn[nH]n3)cc2)C(=O)Nc2nc(-c3nn(Cc4ccccc4F)c4cc(Cl)ccc34)nc(N)c21 [Example 112B, (S)-4-Amino-2-[6-chloro-1-(2-fluorobenzyl)-1H-indazol-3-yl]-5-methyl-5-{4-[2-(2H-tetrazol-5-yl)ethyl]phenyl}-5,7-dihydro-6H-pyrrolo[2,3-d]pyrimidin-6-one] | 130% | 5.60 | 10.18 |  | A (decrease in SBP 0-5 mmHg) |  |  |  |
| CC(C)(Cc1coc(C2(C)C(=O)Nc3nc(-c4nn(Cc5ccccc5F)c5cc(Cl)ccc45)nc(N)c32)n1)c1nn[nH]n1 (centres unmarked) [Example 239A, 4-amino-2-[6-chloro-1-(2-fluorobenzyl)-1H-indazol-3-yl]-5-methyl-5-{4-[2-methyl-2-(2H-tetrazol-5-yl)propyl]-1,3-oxazol-2-yl}-5,7-dihydro-6H-pyrrolo[2,3-d] pyrimidin-6-one] | 62.3% | 6.46 | 10.17 |  | A (decrease in SBP 0-5 mmHg) |  |  |  |
| C[C@@]1(c2ccc(CCC(=O)O)cc2)C(=O)Nc2nc(-c3nn(CC4CCCC4)c4cc(Cl)ccc34)nc(N)c21 [Example 160B, (S)-3-(4-{4-amino-2-[6-chloro-1-(cyclopentylmethyl)-1H-indazol-3-yl]-5-methyl-6-oxo-6,7-dihydro-5H-pyrrolo[2,3-d]pyrimidin-5-yl}phenyl)propanoic acid] | 108% | 6.95 | 10.21 |  | B (decrease in SBP 5-10 mmHg) |  |  |  |
| CC1(c2cn(CCC(=O)O)nn2)C(=O)Nc2nc(-c3nn(CCC(F)(F)C(F)(F)F)c4ncccc34)nc(N)c21 (centres unmarked) [Example 12B, 3-(4-{4-amino-5-methyl-6-oxo-2-[1-(3,3,4,4,4-pentafluorobutyl)-1H-pyrazolo[3,4-b]pyridin-3-yl]-6,7-dihydro-5H-pyrrolo[2,3-d]pyrimidin-5-yl}-1H-1,2,3-triazol-1-yl)propanoic acid] | 81% | 5.54 | 8.69 |  |  |  |  | B (decrease in SBP 5-10 mmHg) |

Further lines, with some results ahead:

| Emax (sGC α1/β1 heterodimer) | pEC50 (sGC α1/β1 heterodimer) | pKi [1] | SMILES | Category: maximum peak decrease of systolic blood pressure (SBP) in SHR ([2]; Dose P.O. 3 mpk) | Category: decrease in SBP (at minimum decrease in PAP of ≥15 mmHg) ([3]; Dose IT 0.01 mpk) | Category: maximum peak decrease of systolic blood pressure (SBP) in SHR ([2]; Dose P.O. 1 mpk) | Category: decrease in SBP (at minimum decrease in PAP of ≥15 mmHg) ([3]; Dose IT 0.03 mpk) | Category: decrease in SBP (at minimum decrease in PAP of ≥15 mmHg) ([3]; Dose IT 0.1 mpk) |
| --- | --- | --- | --- | --- | --- | --- | --- | --- |
| 113% | 6.89 | 9.78 | CC(C)(Cc1csc(C2(C)C(=O)Nc3nc(-c4nn(CCC(F)(F)C(F)(F)F)c5ncc(F)cc45)nc(N)c32)n1)C(=O)O (centres unmarked) [Example 84A, 3-(2-{4-amino-2-[5-fluoro-1-(3,3,4,4,4-pentafluorobutyl)-1H-pyrazolo[3,4-b]pyridin-3-yl]-5-methyl-6-oxo-6,7-dihydro-5H-pyrrolo[2,3-d]pyrimidin-5-yl}-1,3-thiazol-4-yl)-2,2-dimethylpropanoic acid] |  |  | C (decrease in SBP in SHRs>40 mmHg) | A (decrease in SBP 0-5 mmHg) |  |
| 122% | 6.67 | 9.73 | CC(C)(Cc1coc(C2(C)C(=O)Nc3nc(-c4nn(CC5CCCCC5)c5cc(F)ccc45)nc(N)c32)n1)C(=O)O (centres unmarked) [Example 202A, 3-(2-{4-amino-2-[1-(cyclohexyl-methyl)-6-fluoro-1H-indazol-3-yl]-5-methyl-6-oxo-6,7-dihydro-5H-pyrrolo[2,3-d]pyrimidin-5-yl}-1,3-oxazol-4-yl)-2,2-dimethyl-propanoic acid] |  | A (decrease in SBP 0-5 mmHg) |  |  |  |
| 118% | 6.80 | 10.22 | CC(C)(Cc1csc([C@]2(C)C(=O)Nc3nc(-c4nn(Cc5ccccc5F)c5cc(Cl)ccc45)nc(N)c32)n1)C(=O)O [Example 95B, (S)-3-(2-{4-amino-2-[6-chloro-1-(2-fluorobenzyl)-1H-indazol-3-yl]-5-methyl-6-oxo-6,7-dihydro-5H-pyrrolo[2,3-d]pyrimidin-5-yl}-1,3-thiazol-4-yl)-2,2-dimethylpropanoic acid] |  |  |  | A (decrease in SBP 0-5 mmHg) |  |
| 103% | 6.71 | 10.04 | CC(C)(Cc1coc(C2(C)C(=O)Nc3nc(-c4nn(Cc5cccc(F)c5)c5cc(F)ccc45)nc(N)c32)n1)C(=O)O (centres unmarked) [Example 195A, 3-(2-{4-amino-2-[6-fluoro-1-(3-fluorobenzyl)-1H-indazol-3-yl]-5-methyl-6-oxo-6,7-dihydro-5H-pyrrolo[2,3-d]pyrimidin-5-yl}-1,3-oxazol-4-yl)-2,2-dimethyl-propanoic acid] |  | B (decrease in SBP 5-10 mmHg) |  |  |  |
| 86.8% | 6.20 | 9.39 | CC1(c2nc(CCC(=O)O)c[nH]2)C(=O)Nc2nc(-c3nn(Cc4ccccc4F)c4cc(Cl)ccc34)nc(N)c21 (centres unmarked) [Example 235B, 3-(2-{4-Amino-2-[6-chloro-1-(2-fluorobenzyl)-1H-indazol-3-yl]-5-methyl-6-oxo-6,7-dihydro-5H-pyrrolo[2,3-d]pyrimidin-5-yl}-1H-imidazol-4-yl)propanoic acid] |  | A (decrease in SBP 0-5 mmHg) |  |  |  |
| 126% | 6.74 | 10.17 | CC(C)(Cc1coc(C2(C)C(=O)Nc3nc(-c4nn(Cc5ccccc5F)c5cc(Cl)ccc45)nc(N)c32)n1)C(=O)O (centres unmarked) [Example 3A, 3-(2-{4-amino-2-[6-chloro-1-(2-fluorobenzyl)-1H-indazol-3-yl]-5-methyl-6-oxo-6,7-dihydro-5H-pyrrolo[2,3-d]pyrimidin-5-yl)oxazol-4-yl}-2,2-dimethyl-propanoic acid] |  | A (decrease in SBP 0-5 mmHg) |  |  |  |
| 105% | 7.15 | 9.95 | CC(C)(Cc1csc([C@]2(C)C(=O)Nc3nc(-c4nn(Cc5cccc(F)c5)c5ccccc45)nc(N)c32)n1)C(=O)O [Example 222A, (S)-3-(2-{4-amino-2-[1-(3-fluoro-benzyl)-1H-indazol-3-yl]-5-methyl-6-oxo-6,7-dihydro-5H-pyrrolo[2,3-d]pyrimidin-5-yl}-1,3-thiazol-4-yl)-2,2-dimethyl-propanoic acid] |  | B (decrease in SBP 5-10 mmHg) |  |  |  |
